This note sets out measurements from ChEMBL document CHEMBL1201862, “PubChem BioAssay data set” (2004).

What is called GI50 is the concentration that inhibits growth by half.

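How tested: cells in 96-well plates exposed to compound for 48 hours at five concentrations. GI50 = concentration required for 50% inhibition of growth.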 Activity calls are given as the source filed them. Cut-off read from the data, not from the text of the source: active = GI50 up to about 1.1 µM and inactive = higher. *1 amine or outer side, *2 acyl side, *3 side chain or, on linkers, in order; H or OH if unused. Where a SMILES comes first, the peptide text is derived from it. Bridges are numbered along the chain shown (N, C = ends). Roman numbers before positions name the chains, in order. [ ]: non-standard residue; d: D form. Actinocin(9to1) = Cc1c2oc3c(C)ccc(C(=O)[*:1])c3nc-2c(C(=O)[*:2])c(N)c1=O; NMeV = CN[CH](C(=O)O)C(C)C; Sar = CNCC(=O)O

Among the test systems are A549; ACHN; CAKI-1; CCRF-CEM; DU-145; EKVX; HCT-116; HL-60; K562; M14; Malme-3M; NCI-H460; NCI-H522; NCI/ADR-RES; OVCAR-3; PC-3; RXF 393; SNB-19; SW-620; UACC-62.
Holding throughout (test): DTP human tumour cell line panel, 48 h

With `O=c1ssc(Cl)c1Cl`, the GI50 is > 10 µM (inactive) in the test with A549; > 7.26 µM (inactive) in the test with ACHN; 5.38 µM (inactive) in the test on CAKI-1; 1.63 µM (inactive) with CCRF-CEM; > 10 µM (inactive) in the test with DU-145; > 10 µM (inactive) in the test on EKVX. Besides, the GI50 with HCT-116 is > 5.98 µM (inactive); in the test with HL-60, 2.47 µM (inactive); in the test with K562, 3.23 µM (inactive); in the test with M14 it was > 10 µM (inactive); in the test with Malme-3M, > 6.11 µM (inactive); in the test on NCI-H460 it was > 10 µM (inactive). Besides, the GI50 was 4.05 µM (inactive) in the test on NCI-H522; > 10 µM (inactive) in the test on NCI/ADR-RES; > 10 µM (inactive) with OVCAR-3; > 10 µM (inactive) in the test on PC-3; > 10 µM (inactive) in the test on RXF 393; > 10 µM (inactive) in the test with SNB-19. The GI50 is 3.55 µM (inactive) in the test with SW-620 and > 10 µM (inactive) in the test with UACC-62.

Regarding `O=c1[nH]nc(Cc2ccc(Cl)cc2)n1/N=C/c1ccc([N+](=O)[O-])o1`, the GI50 is 3.42 µM (inactive) with A549; 2.12 µM (inactive) with ACHN; 3.24 µM (inactive) in the test on CAKI-1; 1.76 µM (inactive) with CCRF-CEM; 3.64 µM (inactive) with DU-145; 4.63 µM (inactive) with EKVX. Also, the GI50 in the test with HCT-116 was 1.29 µM (inactive); in the test on HL-60, 1.87 µM (inactive); in the test with K562 it was 2.58 µM (inactive); in the test with M14, 2.17 µM (inactive); with Malme-3M, 1.46 µM (inactive); in the test with NCI-H460 it was 3.4 µM (inactive). Also, the GI50 in the test on NCI-H522 is 1 µM (active); with NCI/ADR-RES, 3.16 µM (inactive); in the test on OVCAR-3, 0.53 µM (active); in the test with PC-3, 3.08 µM (inactive); in the test on RXF 393, 1.56 µM (inactive); in the test with SNB-19, 3.98 µM (inactive). For the same compound, the GI50 with SW-620 was 2.92 µM (inactive); with UACC-62, 2.87 µM (inactive).

Consider `Oc1ccc(Cl)cc1Sc1cc(Cl)ccc1O` [FENTICLOR], for which the GI50 in the test with A549 is 26.8 µM (inactive); with ACHN, 8.65 µM (inactive); in the test on CAKI-1, 17.9 µM (inactive); in the test with CCRF-CEM it was 5.92 µM (inactive); in the test with DU-145 it was 14.2 µM (inactive); with EKVX, 15.5 µM (inactive). Further, the GI50 with HCT-116 is 7.11 µM (inactive); in the test on HL-60, 7.87 µM (inactive); in the test with K562, 8.34 µM (inactive); in the test on M14 it was 12.9 µM (inactive); in the test on Malme-3M, 6.67 µM (inactive); in the test with NCI-H460, 10.7 µM (inactive). For the same compound, the GI50 in the test on NCI-H522 is 3.1 µM (inactive); in the test with NCI/ADR-RES it was 12.5 µM (inactive); in the test on OVCAR-3 it was 3.75 µM (inactive); in the test on PC-3, 15.3 µM (inactive); with RXF 393, 14.2 µM (inactive); in the test on SNB-19, 12.9 µM (inactive). Moreover, the GI50 was 16.7 µM (inactive) in the test with SW-620 and 5.66 µM (inactive) in the test with UACC-62.

As to `CC(C)(C)Nc1noc(=O)n1C(C)(C)C`, the GI50 in the test with A549, in the test with ACHN, in the test with CAKI-1, with CCRF-CEM, in the test on DU-145 and in the test on EKVX was > 100 µM (inactive) throughout. The GI50 in the test on HCT-116, with HL-60, in the test on K562, with M14, in the test with Malme-3M and with NCI-H460 was > 100 µM (inactive) each time. The GI50 with NCI-H522, with NCI/ADR-RES, in the test on OVCAR-3, in the test with PC-3, in the test with RXF 393 and with SNB-19 was > 100 µM (inactive) each time. The GI50 in the test on SW-620 and in the test on UACC-62 was > 100 µM (inactive) throughout.

For the compound `CC12CC(Br)(Br)C(=O)C3C1CCCC32`, the GI50 in the test with A549 was 14.6 µM (inactive); with ACHN, 5.27 µM (inactive); in the test on CAKI-1, 2.65 µM (inactive); with CCRF-CEM, 1.36 µM (inactive); in the test with DU-145 it was 12.4 µM (inactive); in the test with EKVX, 7.1 µM (inactive). In addition, the GI50 in the test on HCT-116 was 1.93 µM (inactive); in the test on HL-60, 0.767 µM (active); in the test on K562, 2.1 µM (inactive); in the test with M14, 3.64 µM (inactive); in the test with Malme-3M, 4.06 µM (inactive); in the test on NCI-H460, 14.9 µM (inactive). Also, the GI50 is 3.08 µM (inactive) with NCI-H522; 2.51 µM (inactive) in the test on NCI/ADR-RES; 3.15 µM (inactive) in the test on OVCAR-3; 12.2 µM (inactive) in the test with PC-3; 2.11 µM (inactive) in the test on RXF 393; 14.2 µM (inactive) in the test with SNB-19. For the same compound, the GI50 was 2.25 µM (inactive) in the test with SW-620 and 7.13 µM (inactive) with UACC-62.

Regarding `COc1ccc(N2C(=O)CC(c3c[nH]c4ncccc34)C2=O)cc1` (stereo not given), the GI50 is > 100 µM (inactive) in the test with A549; 21.2 µM (inactive) in the test with ACHN; 19.7 µM (inactive) in the test with CAKI-1; 6.4 µM (inactive) in the test on CCRF-CEM; > 100 µM (inactive) in the test on DU-145; 37.1 µM (inactive) in the test on EKVX. Also, the GI50 in the test with HCT-116 was 22.5 µM (inactive); in the test with HL-60, 11.5 µM (inactive); in the test with K562, 8.09 µM (inactive); with M14, 23 µM (inactive); in the test with Malme-3M, 22 µM (inactive); in the test on NCI-H460 it was > 100 µM (inactive). The GI50 was 7.98 µM (inactive) in the test with NCI-H522; > 53 µM (inactive) with NCI/ADR-RES; 20.7 µM (inactive) with OVCAR-3; 19.4 µM (inactive) in the test with PC-3; 23.9 µM (inactive) in the test on RXF 393; > 100 µM (inactive) in the test on SNB-19. Moreover, the results for the GI50 in the test with SW-620 and in the test on UACC-62 were 18.2 µM (inactive) and > 50.9 µM (inactive), respectively.

As to `Clc1ccc(Cc2nc3ccccc3o2)cc1`, the GI50 was 75 µM (inactive) in the test with A549; > 100 µM (inactive) in the test on ACHN; 54.8 µM (inactive) in the test on CAKI-1; 40.1 µM (inactive) in the test on CCRF-CEM; > 100 µM (inactive) in the test with DU-145; 40.1 µM (inactive) with EKVX. Further, the GI50 was 66.7 µM (inactive) in the test on HCT-116; 40.2 µM (inactive) in the test on HL-60; 50.7 µM (inactive) in the test with K562; > 100 µM (inactive) with M14; > 100 µM (inactive) with Malme-3M; > 100 µM (inactive) in the test with NCI-H460. Also, the GI50 was 33.8 µM (inactive) with NCI-H522; 42 µM (inactive) in the test with NCI/ADR-RES; 52.8 µM (inactive) in the test with OVCAR-3; 55.8 µM (inactive) with PC-3; 25.3 µM (inactive) with RXF 393; > 100 µM (inactive) in the test with SNB-19. The GI50 in the test on SW-620 and in the test on UACC-62 was > 100 µM (inactive) each time.

On to `C=CCN(c1cc(OCc2ccccc2)c2c(c1)c(C)cn2S(=O)(=O)c1ccccc1)S(C)(=O)=O`, for which the GI50 with A549, with ACHN, with CAKI-1, in the test with CCRF-CEM, in the test with DU-145 and with EKVX was > 100 µM (inactive) each time. The GI50 in the test with HCT-116, with HL-60, with K562, in the test on M14, with Malme-3M and in the test with NCI-H460 was > 100 µM (inactive) each time. In addition, the GI50 in the test with NCI-H522, in the test on NCI/ADR-RES, in the test with OVCAR-3, in the test with PC-3, with RXF 393 and with SNB-19 was > 100 µM (inactive) in each case. Moreover, the GI50 in the test on SW-620 and in the test with UACC-62 was > 100 µM (inactive) throughout.

In the case of `O=C1c2ccccc2-c2c1c1ccccc1c(=O)n2-c1cccnc1`, the GI50 with A549 was 11.5 µM (inactive); in the test with ACHN, 23.2 µM (inactive); with CAKI-1 it was 35.3 µM (inactive); in the test with CCRF-CEM, > 10 µM (inactive); with DU-145, > 100 µM (inactive); in the test on EKVX it was > 44.2 µM (inactive). The GI50 in the test with HCT-116 was 27.3 µM (inactive); with HL-60, > 10 µM (inactive); in the test on K562, > 60.3 µM (inactive); in the test with M14 it was > 100 µM (inactive); with Malme-3M, > 95.3 µM (inactive); in the test on NCI-H460, 6.24 µM (inactive). For the same compound, the GI50 in the test with NCI-H522 was 10.5 µM (inactive); in the test on NCI/ADR-RES, 45.8 µM (inactive); with OVCAR-3, > 71.3 µM (inactive); in the test with PC-3, > 54.3 µM (inactive); with RXF 393, > 100 µM (inactive); in the test with SNB-19, 24.6 µM (inactive). Further, the GI50 in the test on SW-620 was 20.2 µM (inactive); in the test with UACC-62, 32 µM (inactive).

For `Cc1c2oc3c(C)ccc(C(=O)NC4C(=O)NC(C(C)C)C(=O)N5CCCC5C(=O)N(C)CC(=O)N(C)C(C(C)C)C(=O)OC4C)c3nc-2c(C(=O)NC2C(=O)NC(C(C)C)C(=O)N3CCCC3C(=O)N(C)CC(=O)N(C)C(C(C)C)C(=O)OC2C)c(N)c1=O` (stereo not given) (I: TVP[Sar][NMeV] / II: TVP[Sar][NMeV]; ester I:1-I:C, II:1-II:C; linker I:N-II:N via Actinocin(9to1); configuration not given here), the GI50 with A549 is 0.000199 µM (active); in the test on ACHN, 0.000213 µM (active); in the test with CAKI-1, 0.00224 µM (active); with CCRF-CEM, < 0.0001 µM (active); in the test on DU-145, 0.000359 µM (active); in the test with EKVX, 0.00416 µM (active). In addition, the GI50 is < 0.0001 µM (active) in the test with HCT-116; 0.00017 µM (active) in the test with HL-60; < 0.0001 µM (active) in the test with K562; 0.00256 µM (active) with M14; 0.000273 µM (active) with Malme-3M; < 0.0001 µM (active) in the test on NCI-H460. Further, the GI50 with NCI-H522 is < 0.0001 µM (active); in the test with NCI/ADR-RES, 0.0499 µM (active); in the test with OVCAR-3, 0.00105 µM (active); in the test with PC-3, 0.000428 µM (active); in the test on RXF 393 it was 0.00136 µM (active); with SNB-19, 0.000112 µM (active). For the same compound, the results for the 50% growth inhibitory concentration (GI50) with SW-620 and in the test on UACC-62 were 0.000698 µM (active) and < 0.0001 µM (active), respectively.
